The source made the active and inactive calls. The calls are words filed in the database; no cut-off is given here.
Experiments:
Type in all cases: cell-based
[1] = target: Integrin alpha-V/beta-3 (Homo sapiens) (UniProt P05106+P06756); assay: Binding affinity to integrin alphaVbeta3 expressed in human K562 cells at 1 uM for 30 mins by flow cytometry
K562 [2] = assay: Decrease in binding affinity to integrin alpha3 Y186A mutant expressed in human K562 cells by flow cytometry
K562 [3] = assay: Decrease in binding affinity to integrin alpha3 D15A mutant expressed in human K562 cells by flow cytometry
K562 [4] = assay: Decrease in binding affinity to integrin alpha3 M164A mutant expressed in human K562 cells by flow cytometry
[5] = target: Integrin alpha-5 (Homo sapiens) (UniProt P08648); assay: Binding affinity to integrin alpha5 in human K562 cells at 1 uM for 30 mins by flow cytometry
Chain of Integrin alpha-5 (Homo sapiens) (P08648 42-894 limits assumed): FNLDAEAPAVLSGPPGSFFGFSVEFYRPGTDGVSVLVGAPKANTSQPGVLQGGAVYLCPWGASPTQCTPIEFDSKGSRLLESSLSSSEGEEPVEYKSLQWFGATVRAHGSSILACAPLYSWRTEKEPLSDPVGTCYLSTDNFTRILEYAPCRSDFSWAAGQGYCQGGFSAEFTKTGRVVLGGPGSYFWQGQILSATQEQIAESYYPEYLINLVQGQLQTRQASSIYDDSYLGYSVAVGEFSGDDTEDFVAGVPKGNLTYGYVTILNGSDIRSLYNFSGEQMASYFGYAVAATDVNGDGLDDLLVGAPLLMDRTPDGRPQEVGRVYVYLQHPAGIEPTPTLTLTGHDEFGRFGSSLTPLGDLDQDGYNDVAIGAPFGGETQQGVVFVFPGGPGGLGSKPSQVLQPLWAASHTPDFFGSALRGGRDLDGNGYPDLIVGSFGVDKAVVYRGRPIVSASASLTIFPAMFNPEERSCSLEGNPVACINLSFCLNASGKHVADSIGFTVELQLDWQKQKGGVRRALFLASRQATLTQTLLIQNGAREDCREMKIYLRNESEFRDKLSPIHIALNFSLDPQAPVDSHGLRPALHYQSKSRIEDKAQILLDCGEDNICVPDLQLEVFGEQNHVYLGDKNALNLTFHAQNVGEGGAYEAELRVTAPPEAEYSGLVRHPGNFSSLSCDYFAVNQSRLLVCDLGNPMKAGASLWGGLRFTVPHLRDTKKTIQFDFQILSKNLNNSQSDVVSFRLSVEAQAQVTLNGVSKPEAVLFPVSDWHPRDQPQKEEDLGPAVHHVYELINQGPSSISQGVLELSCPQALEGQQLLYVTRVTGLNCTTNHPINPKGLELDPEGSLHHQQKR
Chain of Integrin alpha-5 (Homo sapiens) (P08648 895-1049 limits assumed): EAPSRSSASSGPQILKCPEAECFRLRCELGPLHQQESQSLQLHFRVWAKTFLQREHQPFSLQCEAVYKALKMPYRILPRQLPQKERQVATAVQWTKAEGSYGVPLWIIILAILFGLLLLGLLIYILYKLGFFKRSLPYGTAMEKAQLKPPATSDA

[6] = target: Integrin alpha-1 (Homo sapiens) (UniProt P56199); assay: Binding affinity to integrin alpha1 expressed in human K562 cells at 1 uM for 30 mins by flow cytometry
Chain of Integrin alpha-1 (Homo sapiens) (P56199 whole entry): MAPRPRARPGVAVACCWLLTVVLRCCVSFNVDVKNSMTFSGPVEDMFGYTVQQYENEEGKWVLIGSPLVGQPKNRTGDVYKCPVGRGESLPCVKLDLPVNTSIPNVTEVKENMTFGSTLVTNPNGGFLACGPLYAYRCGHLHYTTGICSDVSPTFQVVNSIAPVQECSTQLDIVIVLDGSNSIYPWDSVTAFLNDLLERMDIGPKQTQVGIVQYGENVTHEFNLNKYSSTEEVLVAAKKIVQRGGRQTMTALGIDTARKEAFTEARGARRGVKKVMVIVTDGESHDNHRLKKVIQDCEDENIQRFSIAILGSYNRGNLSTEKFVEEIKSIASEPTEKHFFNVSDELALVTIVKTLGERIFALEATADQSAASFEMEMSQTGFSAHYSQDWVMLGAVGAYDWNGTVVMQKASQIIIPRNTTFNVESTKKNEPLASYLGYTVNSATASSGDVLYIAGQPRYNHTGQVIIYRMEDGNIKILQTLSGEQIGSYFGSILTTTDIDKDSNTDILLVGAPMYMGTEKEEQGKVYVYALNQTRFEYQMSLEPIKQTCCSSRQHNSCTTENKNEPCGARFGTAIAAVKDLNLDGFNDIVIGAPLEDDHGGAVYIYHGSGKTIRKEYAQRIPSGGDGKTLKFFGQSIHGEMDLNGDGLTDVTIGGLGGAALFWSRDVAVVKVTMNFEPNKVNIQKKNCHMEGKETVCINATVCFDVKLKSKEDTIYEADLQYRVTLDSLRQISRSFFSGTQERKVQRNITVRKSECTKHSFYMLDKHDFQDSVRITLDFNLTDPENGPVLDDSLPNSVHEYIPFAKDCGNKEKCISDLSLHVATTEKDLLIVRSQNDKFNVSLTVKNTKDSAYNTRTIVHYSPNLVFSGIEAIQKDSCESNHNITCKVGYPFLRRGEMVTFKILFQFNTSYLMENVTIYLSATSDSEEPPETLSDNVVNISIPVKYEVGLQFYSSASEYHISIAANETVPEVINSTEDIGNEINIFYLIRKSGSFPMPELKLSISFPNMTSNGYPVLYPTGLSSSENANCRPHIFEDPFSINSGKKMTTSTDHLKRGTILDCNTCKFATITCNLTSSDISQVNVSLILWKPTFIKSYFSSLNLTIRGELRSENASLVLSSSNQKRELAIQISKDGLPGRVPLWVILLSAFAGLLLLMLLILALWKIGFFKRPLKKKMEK

[7] = target: T1, Integrin alpha-9 (Homo sapiens) (UniProt Q13797); assay: Binding affinity to integrin alpha9 expressed in human K562 cells at 1 uM for 30 mins by flow cytometry
T1 sequence (whole entry): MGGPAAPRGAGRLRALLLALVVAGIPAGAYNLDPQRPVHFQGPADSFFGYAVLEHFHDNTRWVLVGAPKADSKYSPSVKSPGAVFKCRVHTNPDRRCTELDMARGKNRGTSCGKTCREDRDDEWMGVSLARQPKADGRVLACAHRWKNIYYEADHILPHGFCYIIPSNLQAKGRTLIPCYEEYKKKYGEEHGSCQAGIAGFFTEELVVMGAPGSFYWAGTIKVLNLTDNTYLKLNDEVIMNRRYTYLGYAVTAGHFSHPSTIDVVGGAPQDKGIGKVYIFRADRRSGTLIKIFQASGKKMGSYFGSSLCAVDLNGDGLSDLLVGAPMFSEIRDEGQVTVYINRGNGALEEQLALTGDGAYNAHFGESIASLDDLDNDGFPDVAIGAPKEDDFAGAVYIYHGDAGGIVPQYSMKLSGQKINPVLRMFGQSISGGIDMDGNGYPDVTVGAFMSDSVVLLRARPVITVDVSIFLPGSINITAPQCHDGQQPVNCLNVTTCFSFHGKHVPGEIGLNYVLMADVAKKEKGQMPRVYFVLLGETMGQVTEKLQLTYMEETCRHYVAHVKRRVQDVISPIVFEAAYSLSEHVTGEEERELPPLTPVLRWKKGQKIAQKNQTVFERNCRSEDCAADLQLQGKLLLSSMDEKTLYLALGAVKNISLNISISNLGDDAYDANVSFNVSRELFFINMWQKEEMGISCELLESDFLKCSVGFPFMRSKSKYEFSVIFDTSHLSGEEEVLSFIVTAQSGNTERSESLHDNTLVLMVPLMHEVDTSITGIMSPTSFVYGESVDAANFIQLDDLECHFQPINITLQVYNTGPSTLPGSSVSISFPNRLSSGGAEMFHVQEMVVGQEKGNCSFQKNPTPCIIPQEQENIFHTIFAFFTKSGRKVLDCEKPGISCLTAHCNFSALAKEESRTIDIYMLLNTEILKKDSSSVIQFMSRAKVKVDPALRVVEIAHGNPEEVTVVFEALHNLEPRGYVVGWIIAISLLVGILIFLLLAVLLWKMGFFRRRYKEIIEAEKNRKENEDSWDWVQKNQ

K562 [8] = assay: Decrease in binding affinity to integrin alpha3 T162A mutant expressed in human K562 cells by flow cytometry
[9] = target: Integrin alpha-2 (Homo sapiens) (UniProt P17301); assay: Binding affinity to integrin alpha2 expressed in human K562 cells at 1 uM for 30 mins by flow cytometry
Chain of Integrin alpha-2 (Homo sapiens) (P17301 whole entry): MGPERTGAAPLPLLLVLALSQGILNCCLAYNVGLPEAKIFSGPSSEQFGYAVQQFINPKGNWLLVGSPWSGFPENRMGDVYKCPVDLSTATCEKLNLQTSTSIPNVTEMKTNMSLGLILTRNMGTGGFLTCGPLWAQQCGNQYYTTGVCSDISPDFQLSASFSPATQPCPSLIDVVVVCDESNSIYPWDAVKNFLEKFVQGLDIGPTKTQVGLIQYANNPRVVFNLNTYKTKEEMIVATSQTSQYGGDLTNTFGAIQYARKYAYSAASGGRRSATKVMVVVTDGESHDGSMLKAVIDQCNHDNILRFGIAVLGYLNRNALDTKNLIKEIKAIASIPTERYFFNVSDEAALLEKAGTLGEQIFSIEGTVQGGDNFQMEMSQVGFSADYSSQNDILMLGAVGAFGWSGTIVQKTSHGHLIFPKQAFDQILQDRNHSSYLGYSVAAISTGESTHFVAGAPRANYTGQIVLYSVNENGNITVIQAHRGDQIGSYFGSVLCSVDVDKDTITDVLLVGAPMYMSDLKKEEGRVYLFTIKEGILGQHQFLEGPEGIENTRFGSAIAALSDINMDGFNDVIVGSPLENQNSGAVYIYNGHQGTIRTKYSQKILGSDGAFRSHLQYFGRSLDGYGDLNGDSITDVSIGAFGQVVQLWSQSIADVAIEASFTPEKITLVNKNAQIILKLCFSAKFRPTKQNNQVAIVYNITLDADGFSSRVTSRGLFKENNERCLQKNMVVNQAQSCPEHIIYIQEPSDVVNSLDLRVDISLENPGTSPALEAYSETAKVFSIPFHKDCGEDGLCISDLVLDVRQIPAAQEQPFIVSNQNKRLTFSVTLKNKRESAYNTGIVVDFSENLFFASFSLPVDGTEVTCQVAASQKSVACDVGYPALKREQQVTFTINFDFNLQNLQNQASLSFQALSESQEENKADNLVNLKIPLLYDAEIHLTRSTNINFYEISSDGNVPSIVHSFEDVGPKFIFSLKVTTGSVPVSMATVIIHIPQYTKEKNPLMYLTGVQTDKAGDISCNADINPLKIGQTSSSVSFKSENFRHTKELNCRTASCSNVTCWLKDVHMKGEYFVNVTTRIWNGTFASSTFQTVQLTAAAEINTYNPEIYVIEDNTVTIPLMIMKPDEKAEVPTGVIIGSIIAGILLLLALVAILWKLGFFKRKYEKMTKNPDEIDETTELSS

K562 [10] = assay: Decrease in binding affinity to integrin alpha3 T162F mutant expressed in human K562 cells by flow cytometry
[11] = target: T2, Integrin alpha-6 (Homo sapiens) (UniProt P23229); assay: Binding affinity to integrin alpha6 expressed in human K562 cells at 1 uM for 30 mins by flow cytometry
T2 sequence (whole entry): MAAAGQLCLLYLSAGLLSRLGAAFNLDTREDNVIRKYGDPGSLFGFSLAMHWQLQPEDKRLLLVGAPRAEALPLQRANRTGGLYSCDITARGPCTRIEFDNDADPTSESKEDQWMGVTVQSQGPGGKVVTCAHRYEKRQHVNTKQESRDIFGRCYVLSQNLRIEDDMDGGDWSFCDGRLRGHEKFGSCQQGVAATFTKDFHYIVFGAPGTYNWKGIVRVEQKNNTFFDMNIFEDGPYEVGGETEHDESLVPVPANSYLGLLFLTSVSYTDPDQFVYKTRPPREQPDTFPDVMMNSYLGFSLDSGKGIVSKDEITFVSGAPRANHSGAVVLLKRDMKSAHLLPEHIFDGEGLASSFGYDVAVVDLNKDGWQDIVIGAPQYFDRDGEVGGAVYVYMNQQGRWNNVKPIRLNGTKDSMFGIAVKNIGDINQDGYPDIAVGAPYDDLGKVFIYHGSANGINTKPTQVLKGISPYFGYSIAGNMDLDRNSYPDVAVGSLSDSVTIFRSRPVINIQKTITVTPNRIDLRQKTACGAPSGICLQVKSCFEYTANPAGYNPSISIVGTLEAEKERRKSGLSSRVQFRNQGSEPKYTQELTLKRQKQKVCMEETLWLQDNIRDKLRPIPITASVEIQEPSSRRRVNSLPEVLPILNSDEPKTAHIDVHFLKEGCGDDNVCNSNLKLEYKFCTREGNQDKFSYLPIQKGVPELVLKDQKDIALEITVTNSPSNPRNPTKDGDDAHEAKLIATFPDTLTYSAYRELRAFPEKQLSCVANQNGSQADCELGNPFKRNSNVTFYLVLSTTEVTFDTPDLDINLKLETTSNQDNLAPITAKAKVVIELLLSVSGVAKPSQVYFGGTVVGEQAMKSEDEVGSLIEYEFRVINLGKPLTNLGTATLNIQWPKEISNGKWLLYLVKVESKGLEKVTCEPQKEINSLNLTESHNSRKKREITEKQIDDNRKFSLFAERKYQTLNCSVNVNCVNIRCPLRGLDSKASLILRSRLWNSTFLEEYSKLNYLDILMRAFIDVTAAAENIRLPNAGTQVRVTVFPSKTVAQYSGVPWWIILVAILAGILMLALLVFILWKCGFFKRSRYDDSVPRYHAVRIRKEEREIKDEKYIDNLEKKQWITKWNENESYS

[12] = target: Integrin alpha-4 (Homo sapiens) (UniProt P13612); assay: Binding affinity to integrin alpha4 expressed in human K562 cells at 1 uM for 30 mins by flow cytometry
Chain of Integrin alpha-4 (Homo sapiens) (P13612 whole entry): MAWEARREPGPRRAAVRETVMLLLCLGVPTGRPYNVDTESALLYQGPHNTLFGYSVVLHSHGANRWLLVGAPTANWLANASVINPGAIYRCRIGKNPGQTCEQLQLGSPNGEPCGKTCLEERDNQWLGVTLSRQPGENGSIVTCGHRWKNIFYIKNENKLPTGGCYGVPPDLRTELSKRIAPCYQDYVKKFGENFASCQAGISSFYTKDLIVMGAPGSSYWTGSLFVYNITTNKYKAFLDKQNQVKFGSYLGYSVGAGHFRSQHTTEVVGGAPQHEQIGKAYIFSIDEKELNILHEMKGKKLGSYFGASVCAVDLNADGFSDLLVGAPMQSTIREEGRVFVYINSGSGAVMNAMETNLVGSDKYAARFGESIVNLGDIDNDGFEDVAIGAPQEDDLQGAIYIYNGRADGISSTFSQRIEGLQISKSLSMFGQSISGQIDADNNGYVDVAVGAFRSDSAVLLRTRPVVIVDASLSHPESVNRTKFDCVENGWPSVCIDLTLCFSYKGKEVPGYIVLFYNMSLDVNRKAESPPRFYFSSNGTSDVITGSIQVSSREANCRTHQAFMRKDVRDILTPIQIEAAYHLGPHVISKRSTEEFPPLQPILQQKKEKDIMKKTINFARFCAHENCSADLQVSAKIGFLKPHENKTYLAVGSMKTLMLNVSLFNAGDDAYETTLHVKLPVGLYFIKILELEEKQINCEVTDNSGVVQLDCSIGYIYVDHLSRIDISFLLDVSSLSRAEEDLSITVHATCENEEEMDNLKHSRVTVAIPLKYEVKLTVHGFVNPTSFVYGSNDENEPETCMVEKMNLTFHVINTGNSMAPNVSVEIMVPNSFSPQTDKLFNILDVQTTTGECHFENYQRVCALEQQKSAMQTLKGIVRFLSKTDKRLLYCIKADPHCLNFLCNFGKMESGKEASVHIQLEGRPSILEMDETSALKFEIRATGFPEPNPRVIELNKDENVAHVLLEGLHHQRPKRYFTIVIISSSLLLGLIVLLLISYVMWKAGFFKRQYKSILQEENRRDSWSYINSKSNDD

K562 [13] = assay: Decrease in binding affinity to integrin alpha3 G163A mutant expressed in human K562 cells by flow cytometry

- Activity [1]: inactive
- Activity [5]: inactive
- Activity [6]: inactive
- Activity [7]: inactive
- Activity [9]: inactive
- Activity [11]: inactive
- Activity [12]: inactive
SMILES: CC(C)C[C@@H]1NC(=O)CNC(=O)[C@@H](CC(=O)O)NC(=O)[C@@H](N)CSSC[C@@H](C(N)=O)NC(=O)[C@H](CC(N)=O)NC(=O)[C@@H]2C[C@@H](O)CN2C(=O)CNC1=O
- Activity (K562 [2]): inactive
- Activity (K562 [3]): inactive
- Activity (K562 [4]): inactive
- Activity (K562 [8]): inactive
- Activity (K562 [10]): inactive
- Activity (K562 [13]): inactive
